Assay results reported in PMC6704710, “Preclinical evaluation of 3D185, a novel potent inhibitor of FGFR1/2/3 and CSF-1R, in FGFR-dependent and macrophage-dominant cancer models” (Journal of Experimental & Clinical Cancer Research : CR, 2019).

Assays:
Assay in all cases: Eurofins kinase panel
Format in all cases: biochemical
Details in all cases: read-out: Inhibition rate (%)
[1] = target: T1, HIPK3(h) (Homo sapiens, UniProt Q9H422)
T1 construct: purchased Eurofins (KinaseProfiler)

[2] = target: T2, PEK(h) (Homo sapiens, UniProt Q9NZJ5)
T2 construct: purchased Eurofins (KinaseProfiler)
T2 sequence (Q9NZJ5 30-1116): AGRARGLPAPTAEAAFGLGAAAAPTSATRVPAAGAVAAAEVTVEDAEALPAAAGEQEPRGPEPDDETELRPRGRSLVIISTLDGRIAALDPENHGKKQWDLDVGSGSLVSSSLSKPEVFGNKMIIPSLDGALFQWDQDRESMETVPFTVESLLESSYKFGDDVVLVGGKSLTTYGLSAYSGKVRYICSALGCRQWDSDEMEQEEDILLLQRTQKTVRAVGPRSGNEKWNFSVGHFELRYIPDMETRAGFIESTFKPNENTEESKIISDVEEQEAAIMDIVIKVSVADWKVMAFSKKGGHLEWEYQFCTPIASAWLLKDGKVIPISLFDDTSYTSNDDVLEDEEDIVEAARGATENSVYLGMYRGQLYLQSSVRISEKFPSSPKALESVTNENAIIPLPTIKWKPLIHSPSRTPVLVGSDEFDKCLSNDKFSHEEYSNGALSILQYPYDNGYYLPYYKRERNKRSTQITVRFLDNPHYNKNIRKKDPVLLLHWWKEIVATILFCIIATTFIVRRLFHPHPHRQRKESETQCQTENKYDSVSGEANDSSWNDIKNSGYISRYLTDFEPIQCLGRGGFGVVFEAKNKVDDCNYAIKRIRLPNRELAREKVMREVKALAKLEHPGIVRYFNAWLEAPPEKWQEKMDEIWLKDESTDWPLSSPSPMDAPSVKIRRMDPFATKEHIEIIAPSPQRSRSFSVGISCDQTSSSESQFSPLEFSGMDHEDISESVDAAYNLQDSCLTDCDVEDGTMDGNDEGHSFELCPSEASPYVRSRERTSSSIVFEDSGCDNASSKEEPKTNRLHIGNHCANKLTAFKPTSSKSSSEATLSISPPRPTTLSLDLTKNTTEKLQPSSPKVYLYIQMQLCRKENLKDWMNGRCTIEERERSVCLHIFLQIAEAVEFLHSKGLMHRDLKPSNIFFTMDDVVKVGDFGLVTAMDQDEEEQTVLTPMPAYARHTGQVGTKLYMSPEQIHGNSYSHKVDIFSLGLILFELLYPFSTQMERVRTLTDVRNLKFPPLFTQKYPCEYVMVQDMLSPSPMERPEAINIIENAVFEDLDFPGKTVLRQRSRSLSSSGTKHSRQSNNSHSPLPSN

[3] = target: T3, Txk(h) (Homo sapiens, UniProt P42681)
T3 construct: purchased Eurofins (KinaseProfiler)
T3 sequence (P42681 1-527): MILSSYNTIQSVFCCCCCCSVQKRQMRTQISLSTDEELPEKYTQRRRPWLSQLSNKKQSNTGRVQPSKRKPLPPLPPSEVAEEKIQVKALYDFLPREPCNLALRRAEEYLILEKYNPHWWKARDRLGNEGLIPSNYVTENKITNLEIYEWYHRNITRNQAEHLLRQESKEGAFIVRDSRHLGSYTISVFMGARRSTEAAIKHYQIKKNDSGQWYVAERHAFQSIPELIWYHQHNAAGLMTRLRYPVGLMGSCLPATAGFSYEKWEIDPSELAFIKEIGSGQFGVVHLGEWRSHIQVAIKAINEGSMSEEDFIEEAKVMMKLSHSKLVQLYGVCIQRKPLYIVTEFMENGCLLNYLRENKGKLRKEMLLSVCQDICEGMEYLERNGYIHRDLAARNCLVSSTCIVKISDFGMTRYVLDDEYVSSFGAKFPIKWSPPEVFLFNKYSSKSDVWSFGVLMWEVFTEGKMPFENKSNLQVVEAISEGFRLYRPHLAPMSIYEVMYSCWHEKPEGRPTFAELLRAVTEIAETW

[4] = target: T4, SLK(h) (Homo sapiens, UniProt Q9H2G2)
T4 construct: purchased Eurofins (KinaseProfiler)

[5] = target: T5, ARK5(h) (Homo sapiens, UniProt O60285)
T5 construct: purchased Eurofins (KinaseProfiler)
T5 sequence (O60285 1-661): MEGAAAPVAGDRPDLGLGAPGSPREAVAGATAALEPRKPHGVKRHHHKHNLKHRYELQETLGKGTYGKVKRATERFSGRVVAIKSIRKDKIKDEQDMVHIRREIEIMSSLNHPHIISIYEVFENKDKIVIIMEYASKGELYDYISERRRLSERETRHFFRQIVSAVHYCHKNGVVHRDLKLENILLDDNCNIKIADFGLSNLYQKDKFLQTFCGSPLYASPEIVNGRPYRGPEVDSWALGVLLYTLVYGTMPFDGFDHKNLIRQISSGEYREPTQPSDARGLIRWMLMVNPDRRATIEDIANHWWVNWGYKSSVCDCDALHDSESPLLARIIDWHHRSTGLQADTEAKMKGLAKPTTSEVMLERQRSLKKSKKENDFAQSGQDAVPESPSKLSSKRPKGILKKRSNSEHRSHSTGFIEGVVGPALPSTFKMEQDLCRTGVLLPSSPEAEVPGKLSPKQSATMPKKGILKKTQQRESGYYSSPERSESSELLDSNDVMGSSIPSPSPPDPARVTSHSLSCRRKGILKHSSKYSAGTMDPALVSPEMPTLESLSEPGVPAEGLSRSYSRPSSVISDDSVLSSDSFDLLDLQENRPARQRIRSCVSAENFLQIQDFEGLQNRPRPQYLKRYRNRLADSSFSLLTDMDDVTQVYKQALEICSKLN

T4 sequence (Q9H2G2 whole entry): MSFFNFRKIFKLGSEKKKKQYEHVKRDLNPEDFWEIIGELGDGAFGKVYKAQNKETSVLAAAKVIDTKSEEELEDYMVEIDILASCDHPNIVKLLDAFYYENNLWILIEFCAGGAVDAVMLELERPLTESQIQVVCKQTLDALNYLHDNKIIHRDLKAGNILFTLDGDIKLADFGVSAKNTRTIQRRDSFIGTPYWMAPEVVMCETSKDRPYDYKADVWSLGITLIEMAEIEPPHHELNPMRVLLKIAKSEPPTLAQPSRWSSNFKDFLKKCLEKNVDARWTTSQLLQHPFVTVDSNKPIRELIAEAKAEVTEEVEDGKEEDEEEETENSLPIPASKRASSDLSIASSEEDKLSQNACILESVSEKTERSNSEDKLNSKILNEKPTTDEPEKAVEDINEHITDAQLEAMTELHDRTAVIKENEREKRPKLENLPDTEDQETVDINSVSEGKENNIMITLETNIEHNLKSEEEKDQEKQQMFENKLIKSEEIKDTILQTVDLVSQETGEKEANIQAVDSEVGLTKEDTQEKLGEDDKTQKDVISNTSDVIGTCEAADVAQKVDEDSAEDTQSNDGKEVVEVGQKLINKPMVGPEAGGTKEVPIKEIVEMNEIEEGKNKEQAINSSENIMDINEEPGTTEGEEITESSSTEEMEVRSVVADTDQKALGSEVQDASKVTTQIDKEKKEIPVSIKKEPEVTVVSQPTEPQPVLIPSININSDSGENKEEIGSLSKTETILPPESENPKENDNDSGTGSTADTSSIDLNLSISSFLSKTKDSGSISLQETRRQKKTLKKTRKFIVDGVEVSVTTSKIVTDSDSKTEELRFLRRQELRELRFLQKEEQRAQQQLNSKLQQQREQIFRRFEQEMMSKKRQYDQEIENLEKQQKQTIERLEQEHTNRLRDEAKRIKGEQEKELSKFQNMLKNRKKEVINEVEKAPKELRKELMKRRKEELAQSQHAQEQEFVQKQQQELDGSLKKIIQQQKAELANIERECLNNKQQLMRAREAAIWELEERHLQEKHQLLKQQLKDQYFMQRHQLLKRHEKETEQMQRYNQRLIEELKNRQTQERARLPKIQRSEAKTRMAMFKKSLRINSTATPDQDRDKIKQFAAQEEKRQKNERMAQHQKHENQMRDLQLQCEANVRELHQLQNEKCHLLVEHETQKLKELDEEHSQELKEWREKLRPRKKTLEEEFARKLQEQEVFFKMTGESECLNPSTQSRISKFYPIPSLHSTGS
T1 sequence (Q9H422 whole entry): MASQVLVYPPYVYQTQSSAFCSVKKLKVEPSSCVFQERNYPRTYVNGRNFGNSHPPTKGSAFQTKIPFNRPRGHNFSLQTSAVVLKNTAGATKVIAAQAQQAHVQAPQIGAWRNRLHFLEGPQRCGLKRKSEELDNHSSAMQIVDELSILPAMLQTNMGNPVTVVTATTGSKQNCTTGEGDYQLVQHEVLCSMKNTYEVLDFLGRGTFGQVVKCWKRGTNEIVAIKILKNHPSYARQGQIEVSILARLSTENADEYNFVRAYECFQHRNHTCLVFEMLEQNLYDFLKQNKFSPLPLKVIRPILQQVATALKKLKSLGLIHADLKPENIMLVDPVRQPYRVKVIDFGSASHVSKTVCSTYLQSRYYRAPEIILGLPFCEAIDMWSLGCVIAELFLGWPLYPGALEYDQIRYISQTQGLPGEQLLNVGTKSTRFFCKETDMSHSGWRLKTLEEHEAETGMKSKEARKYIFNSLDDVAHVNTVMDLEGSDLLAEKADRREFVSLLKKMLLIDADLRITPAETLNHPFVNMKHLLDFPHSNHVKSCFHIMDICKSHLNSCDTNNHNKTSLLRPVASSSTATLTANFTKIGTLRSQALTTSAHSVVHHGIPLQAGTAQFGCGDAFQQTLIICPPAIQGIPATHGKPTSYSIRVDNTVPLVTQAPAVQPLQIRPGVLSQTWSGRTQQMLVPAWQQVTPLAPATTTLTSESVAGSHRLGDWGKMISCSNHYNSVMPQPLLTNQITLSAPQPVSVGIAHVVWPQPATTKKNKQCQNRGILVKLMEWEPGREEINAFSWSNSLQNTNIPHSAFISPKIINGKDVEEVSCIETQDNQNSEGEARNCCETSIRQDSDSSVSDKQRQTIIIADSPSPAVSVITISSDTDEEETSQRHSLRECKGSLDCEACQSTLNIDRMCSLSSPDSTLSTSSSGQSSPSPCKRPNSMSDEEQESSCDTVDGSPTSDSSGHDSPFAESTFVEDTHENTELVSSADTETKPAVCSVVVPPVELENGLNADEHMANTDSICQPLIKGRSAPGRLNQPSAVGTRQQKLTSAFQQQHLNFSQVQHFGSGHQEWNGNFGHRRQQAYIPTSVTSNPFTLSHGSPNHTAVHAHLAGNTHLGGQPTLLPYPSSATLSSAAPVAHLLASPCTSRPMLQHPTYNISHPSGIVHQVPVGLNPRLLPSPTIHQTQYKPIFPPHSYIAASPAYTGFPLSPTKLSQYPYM

Structure (SMILES): COc1cc(OC)c(Cl)c(-c2ccc3c(NC(=O)c4ccc(N5CCNC(C)(C)C5)cc4)n[nH]c3n2)c1Cl [3D185]
- inhibition at 0.01 µM ([1]; 10 nM): -2%
- inhibition at 0.1 µM ([1]; 100 nM): -12%
- inhibition at 1 µM ([1]; 1000 nM): -8%
- inhibition at 0.01 µM ([2]; 10 nM): -7%
- inhibition at 0.1 µM ([2]; 100 nM): 6%
- inhibition at 1 µM ([2]; 1000 nM): 55%
- inhibition at 0.01 µM ([3]; 10 nM): 18%
- inhibition at 0.1 µM ([3]; 100 nM): 27%
- inhibition at 1 µM ([3]; 1000 nM): 49%
- inhibition at 0.01 µM ([4]; 10 nM): 10%
- inhibition at 0.1 µM ([4]; 100 nM): 34%
- inhibition at 1 µM ([4]; 1000 nM): 81%
- inhibition at 0.01 µM ([5]; 10 nM): 11%
- inhibition at 0.1 µM ([5]; 100 nM): 16%
- inhibition at 1 µM ([5]; 1000 nM): 13%
